Measurements: the NIST ThermoML archive (doi:10.1021/je0340755)

Assay: xn = mol fraction of the nth substance listed
Details: 101.3 kPa, Liquid; for viscosity: Capillary tube (Ostwald / Ubbelohde) method

CC(O)CO (centres undefined) [1,2-propanediol] + O
Details	mass density [kg/m3]	speed of sound [m/s]	viscosity [mPa·s]
298.15 K, x2 = 0.044	1033.39	1511.4	41.25
298.15 K, x2 = 0.0987	1034.15	1518.3	38.41
298.15 K, x2 = 0.1484	1034.84	1523	35.74
298.15 K, x2 = 0.2498	1036.3	1531.6	30.2
298.15 K, x2 = 0.3494	1037.8	1551.3	24.83
298.15 K, x2 = 0.4494	1039.24	1581.6	19.71
298.15 K, x2 = 0.5029	1039.87	1602.9	17.14
298.15 K, x2 = 0.5499	1040.27	1622.2	15
298.15 K, x2 = 0.5597	1040.33	1626.9	14.56
298.15 K, x2 = 0.6501	1040.2	1660.5	10.84
298.15 K, x2 = 0.7499	1037.73	1687.6	7.287
298.15 K, x2 = 0.85	1030.31	1676.8	4.325
298.15 K, x2 = 0.9003	1023.26	1642.7	3.049
298.15 K, x2 = 0.9115	1021.26	1632.5	2.782
298.15 K, x2 = 0.9154	1020.51	1627.5	2.692
298.15 K, x2 = 0.927	1018.16	1614.3	2.425
298.15 K, x2 = 0.9367	1016.02	1602.1	2.208
298.15 K, x2 = 0.9504	1012.69	1582.9	1.907
298.15 K, x2 = 0.9551	1011.46	1577.5	1.806
298.15 K, x2 = 0.96	1010.13	1570.2	1.701
298.15 K, x2 = 0.9696	1007.36	1554.1	1.501
298.15 K, x2 = 0.9797	1004.21	1535.9	1.294
298.15 K, x2 = 0.9902	1000.65	1518	1.083
298.15 K, x2 = 0.9923	999.9	1513.6	1.041
298.15 K, x2 = 0.9948	998.99	1508.4	0.992
308.15 K, x2 = 0.044	1026.01	1502.9	23.03
308.15 K, x2 = 0.0987	1026.76	1509.5	21.43
308.15 K, x2 = 0.1484	1027.45	1513.1	19.93
308.15 K, x2 = 0.2498	1028.92	1524.5	16.8
308.15 K, x2 = 0.3494	1030.43	1541.8	13.77
308.15 K, x2 = 0.4494	1031.91	1565.2	10.9
308.15 K, x2 = 0.5029	1032.59	1581.4	9.465
308.15 K, x2 = 0.5499	1033.05	1598.4	8.274
308.15 K, x2 = 0.5597	1033.12	1602.2	8.034
308.15 K, x2 = 0.6501	1033.19	1640	5.979
308.15 K, x2 = 0.7499	1031.14	1672.3	4.049
308.15 K, x2 = 0.85	1024.53	1660.9	2.473
308.15 K, x2 = 0.9003	1018.14	1628.3	1.81
308.15 K, x2 = 0.9115	1016.3	1618.4	1.673
308.15 K, x2 = 0.9154	1015.63	1614.8	1.626
308.15 K, x2 = 0.927	1013.47	1603.4	1.491
308.15 K, x2 = 0.9367	1011.51	1593.2	1.379
308.15 K, x2 = 0.9504	1008.45	1578	1.227
308.15 K, x2 = 0.9551	1007.32	1572.6	1.177
308.15 K, x2 = 0.96	1006.1	1566.9	1.124
308.15 K, x2 = 0.9696	1003.55	1555.5	1.023
308.15 K, x2 = 0.9797	1000.65	1543.3	0.919
308.15 K, x2 = 0.9902	997.36	1530.7	0.815
308.15 K, x2 = 0.9923	996.67	1528.2	0.794
308.15 K, x2 = 0.9948	995.83	1525.2	0.769
318.15 K, x2 = 0.044	1017.94	1451.7	–
318.15 K, x2 = 0.0987	1018.71	1458.8	–
318.15 K, x2 = 0.1484	1019.41	1463.2	–
318.15 K, x2 = 0.2498	1020.89	1476.1	–
318.15 K, x2 = 0.3494	1022.37	1495.1	–
318.15 K, x2 = 0.4494	1023.79	1520.3	–
318.15 K, x2 = 0.5029	1024.44	1537.6	5.202
318.15 K, x2 = 0.5499	1024.88	1555.5	4.639
318.15 K, x2 = 0.5597	1024.96	1559.6	4.528
318.15 K, x2 = 0.6501	1025.1	1599.9	3.576
318.15 K, x2 = 0.7499	1023.4	1637.6	2.675
318.15 K, x2 = 0.85	1017.63	1637.9	1.864
318.15 K, x2 = 0.9003	1011.96	1615	1.462
318.15 K, x2 = 0.9115	1010.33	1607.7	1.37
318.15 K, x2 = 0.9154	1009.72	1605	1.338
318.15 K, x2 = 0.927	1007.79	1596.5	1.242
318.15 K, x2 = 0.9367	1006.03	1589	1.16
318.15 K, x2 = 0.9504	1003.28	1577.7	1.043
318.15 K, x2 = 0.9551	1002.26	1573.6	1.003
318.15 K, x2 = 0.96	1001.16	1569.4	0.96
318.15 K, x2 = 0.9696	998.86	1561	0.876
318.15 K, x2 = 0.9797	996.22	1552.2	0.784
318.15 K, x2 = 0.9902	993.24	1543.1	0.688
318.15 K, x2 = 0.9923	992.61	1541.4	0.668
318.15 K, x2 = 0.9948	991.85	1539.3	0.645
328.15 K, x2 = 0.044	1010.15	1414.3	9.223
328.15 K, x2 = 0.0987	1010.89	1421.8	8.612
328.15 K, x2 = 0.1484	1011.57	1426.6	8.046
328.15 K, x2 = 0.2498	1012.99	1440.5	6.905
328.15 K, x2 = 0.3494	1014.43	1460.2	5.842
328.15 K, x2 = 0.4494	1015.82	1486.4	4.844
328.15 K, x2 = 0.5029	1016.47	1504.2	4.335
328.15 K, x2 = 0.5499	1016.94	1522.6	3.901
328.15 K, x2 = 0.5597	1017.01	1526.7	3.811
328.15 K, x2 = 0.6501	1017.26	1568.3	3.002
328.15 K, x2 = 0.7499	1015.84	1609.2	2.147
328.15 K, x2 = 0.85	1010.71	1617.9	1.36
328.15 K, x2 = 0.9003	1005.57	1602.5	1.012
328.15 K, x2 = 0.9115	1004.09	1597.2	0.942
328.15 K, x2 = 0.9154	1003.54	1595.2	0.917
328.15 K, x2 = 0.927	1001.78	1589	0.848
328.15 K, x2 = 0.9367	1000.17	1583.4	0.793
328.15 K, x2 = 0.9504	997.67	1575.1	0.72
328.15 K, x2 = 0.9551	996.73	1572.2	0.695
328.15 K, x2 = 0.96	995.72	1569.1	0.672
328.15 K, x2 = 0.9696	993.62	1563.1	0.627
328.15 K, x2 = 0.9797	991.21	1556.8	0.582
328.15 K, x2 = 0.9902	988.47	1550.5	0.539
328.15 K, x2 = 0.9923	987.9	1549.3	0.531
328.15 K, x2 = 0.9948	987.19	1547.8	0.521
338.15 K, x2 = 0.044	1002.38	1395.8	6.72
338.15 K, x2 = 0.0987	1003.08	1403.2	6.302
338.15 K, x2 = 0.1484	1003.72	1408.2	5.915
338.15 K, x2 = 0.2498	1005.08	1422.2	5.133
338.15 K, x2 = 0.3494	1006.46	1441.9	4.398
338.15 K, x2 = 0.4494	1007.81	1468	3.698
338.15 K, x2 = 0.5029	1008.45	1485.6	3.337
338.15 K, x2 = 0.5499	1008.91	1503.8	3.027
338.15 K, x2 = 0.5597	1008.99	1507.9	2.961
338.15 K, x2 = 0.6501	1009.3	1549	2.378
338.15 K, x2 = 0.7499	1008.09	1590.8	1.75
338.15 K, x2 = 0.85	1003.47	1604.3	1.156
338.15 K, x2 = 0.9003	998.8	1593.6	0.882
338.15 K, x2 = 0.9115	997.45	1589.7	0.825
338.15 K, x2 = 0.9154	996.94	1588.2	0.806
338.15 K, x2 = 0.927	995.33	1583.5	0.749
338.15 K, x2 = 0.9367	993.86	1579.2	0.702
338.15 K, x2 = 0.9504	991.56	1572.9	0.639
338.15 K, x2 = 0.9551	990.71	1570.7	0.618
338.15 K, x2 = 0.96	989.78	1568.4	0.597
338.15 K, x2 = 0.9696	987.84	1563.8	0.556
338.15 K, x2 = 0.9797	985.63	1559.2	0.515
338.15 K, x2 = 0.9902	983.11	1554.7	0.474
338.15 K, x2 = 0.9923	982.58	1553.9	0.466
338.15 K, x2 = 0.9948	981.93	1552.9	0.457
